According to patent US8883841B2, “Oncogenic ras-specific cytotoxic compound and methods of use thereof” (The Board of Regents of the University of Texas System, priority 2005, dated 2014):
Read-outs that look alike come from different tables or passages of the source.

Key:
H460 cells = test: cells; conditions: Homo sapiens
HCC-2998 = test: NCI in-vitro testing, HCC-2998 (Colon Cancer)
SNB-19 = test: NCI in-vitro testing, SNB-19 (CNS Cancer)
SN12C = test: NCI in-vitro testing, SN12C (Renal Cancer)
CAKI-1 = test: NCI in-vitro testing, CAKI-1 (Renal Cancer); conditions: for Percent Growth: CAK1-1
RPMI-8226 = test: NCI in-vitro testing, RPMI-8226 (Leukemia)
HCT-116 = test: NCI in-vitro testing, HCT-116 (Colon Cancer)
SF-295 = test: NCI in-vitro testing, SF-295 (CNS Cancer)
ACHN = test: NCI in-vitro testing, ACHN (Renal Cancer)
HS 578T = test: NCI in-vitro testing, HS 578T (Breast Cancer)
HOP-92 = test: NCI in-vitro testing, HOP-92 (Non-Small Cell Lung Cancer)
HT29 = test: NCI in-vitro testing, HT29 (Colon Cancer)
MDA-MB-231/ATCC = test: NCI in-vitro testing, MDA-MB-231/ATCC (Breast Cancer)
H322 cells = test: Cell viability, H322 lung cancer cells; type: cell-based, human; conditions: Homo sapiens, NCI-H322; H322, Lung; read-out: IC50 (−LogM) (converted)
SK-OV-3 = test: NCI in-vitro testing, SK-OV-3 (Ovarian Cancer)
EKVX = test: NCI in-vitro testing, EKVX (Non-Small Cell Lung Cancer)
[1] = Homo sapiens, read-out: Log10 GI50 (converted)

## OCc1cn(Cc2ccc(Cl)cc2)c2ccccc12 [Oncrasin K060, 1H-Indole-3-methanol, 1-[(4-chlorophenyl)methyl]-]
H460 cells; NCI-H460, read-out: IC50 (−LogM), H460, Lung (converted)
  IC50: 0.0158 µM
H460 cells; NCI-H460, read-out: IC50 in H460 cells, Table 1
  IC50: 0.0158 µM
HCC-2998; HCC-2998
  TGI: 2.04E−5 Molar
HCC-2998; HCC-2998, Log10 Concentration −4.0 Molar
  Percent Growth: −97%
HCC-2998; HCC-2998, Log10 Concentration −5.0 Molar
  Percent Growth: 43%
HCC-2998; HCC-2998, Log10 Concentration −6.0 Molar
  Percent Growth: 62%
HCC-2998; HCC-2998, Log10 Concentration −7.0 Molar
  Percent Growth: 86%
HCC-2998; HCC-2998, Log10 Concentration −8.0 Molar
  Percent Growth: 95%
HCC-2998; Homo sapiens, HCC 2998
  GI50: 4.33 µM
HCC-2998; Homo sapiens, HCC 2998, read-out: LC50
  CC50: 45.2 µM
HCC-2998; Homo sapiens, HCC 2998, read-out: Log10 GI50 (converted)
  GI50: 4.37 µM
SNB-19; Homo sapiens, SNB-19
  GI50: 17.6 µM
SNB-19; Homo sapiens, SNB-19, read-out: LC50
  CC50: > 100 µM
SNB-19; Homo sapiens, SNB-19, read-out: Log10 GI50 (converted)
  GI50: 17.8 µM
SNB-19; SNB-19
  TGI: 5.69E−5 Molar
SNB-19; SNB-19, Log10 Concentration −4.0 Molar
  Percent Growth: −24%
SNB-19; SNB-19, Log10 Concentration −5.0 Molar
  Percent Growth: 74%
SNB-19; SNB-19, Log10 Concentration −6.0 Molar
  Percent Growth: 91%
SNB-19; SNB-19, Log10 Concentration −7.0 Molar
  Percent Growth: 97%
SNB-19; SNB-19, Log10 Concentration −8.0 Molar
  Percent Growth: 103%
SN12C
  TGI: 1.94E−5 Molar
SN12C; Homo sapiens
  GI50: 3.56 µM
SN12C; Homo sapiens, read-out: LC50
  CC50: 87.2 µM
SN12C; [1]
  GI50: 3.55 µM
SN12C; Log10 Concentration −4.0 Molar
  Percent Growth: −68%
SN12C; Log10 Concentration −5.0 Molar
  Percent Growth: 27%
SN12C; Log10 Concentration −6.0 Molar
  Percent Growth: 78%
SN12C; Log10 Concentration −7.0 Molar
  Percent Growth: 93%
SN12C; Log10 Concentration −8.0 Molar
  Percent Growth: 97%
CAKI-1; Log10 Concentration −4.0 Molar
  Percent Growth: 1%
CAKI-1; Log10 Concentration −5.0 Molar
  Percent Growth: −47%
CAKI-1; Log10 Concentration −6.0 Molar
  Percent Growth: −21%
CAKI-1; Log10 Concentration −7.0 Molar
  Percent Growth: −3%
CAKI-1; Log10 Concentration −8.0 Molar
  Percent Growth: 1%
CAKI-1; Homo sapiens, CAKI-1
  GI50: < 0.01 µM
CAKI-1; Homo sapiens, CAKI-1, read-out: LC50
  CC50: > 100 µM
CAKI-1; Homo sapiens, CAKI-1, read-out: Log10 GI50 (converted)
  GI50: < 0.01 µM
RPMI-8226; Homo sapiens, RPMI-8226
  GI50: 0.372 µM
RPMI-8226; Homo sapiens, RPMI-8226, read-out: LC50
  CC50: > 100 µM
RPMI-8226; Homo sapiens, RPMI-8226, read-out: Log10 GI50 (converted)
  GI50: 0.372 µM
RPMI-8226; RPMI-8226
  TGI: 3.19E−6 Molar
RPMI-8226; RPMI-8226, Log10 Concentration −4.0 Molar
  Percent Growth: −35%
RPMI-8226; RPMI-8226, Log10 Concentration −5.0 Molar
  Percent Growth: −23%
RPMI-8226; RPMI-8226, Log10 Concentration −6.0 Molar
  Percent Growth: 24%
RPMI-8226; RPMI-8226, Log10 Concentration −7.0 Molar
  Percent Growth: 85%
RPMI-8226; RPMI-8226, Log10 Concentration −8.0 Molar
  Percent Growth: 119%
HCT-116; HCT-116
  TGI: 1.06E−5 Molar
HCT-116; HCT-116, Log10 Concentration −4.0 Molar
  Percent Growth: −64%
HCT-116; HCT-116, Log10 Concentration −5.0 Molar
  Percent Growth: 2%
HCT-116; HCT-116, Log10 Concentration −6.0 Molar
  Percent Growth: 10%
HCT-116; HCT-116, Log10 Concentration −7.0 Molar
  Percent Growth: 30%
HCT-116; HCT-116, Log10 Concentration −8.0 Molar
  Percent Growth: 68%
HCT-116; Homo sapiens, HCT-116
  GI50: 0.0204 µM
HCT-116; Homo sapiens, HCT-116, read-out: LC50
  CC50: 6.06 µM
HCT-116; Homo sapiens, HCT-116, read-out: Log10 GI50 (converted)
  GI50: 0.0295 µM
SF-295; Homo sapiens, SF-295
  GI50: 14.3 µM
SF-295; Homo sapiens, SF-295, read-out: LC50
  CC50: > 100 µM
SF-295; Homo sapiens, SF-295, read-out: Log10 GI50 (converted)
  GI50: 1.41 µM
SF-295; SF-295
  TGI: 3.52E−5 Molar
SF-295; SF-295, Log10 Concentration −4.0 Molar
  Percent Growth: −15%
SF-295; SF-295, Log10 Concentration −5.0 Molar
  Percent Growth: 18%
SF-295; SF-295, Log10 Concentration −6.0 Molar
  Percent Growth: 56%
SF-295; SF-295, Log10 Concentration −7.0 Molar
  Percent Growth: 80%
SF-295; SF-295, Log10 Concentration −8.0 Molar
  Percent Growth: 104%
ACHN
  TGI: 2.25E−5 Molar
ACHN; Homo sapiens
  GI50: 2 µM
ACHN; Homo sapiens, read-out: LC50
  CC50: > 100 µM
ACHN; [1]
  GI50: 2.63 µM
ACHN; Log10 Concentration −4.0 Molar
  Percent Growth: −30%
ACHN; Log10 Concentration −5.0 Molar
  Percent Growth: 10%
ACHN; Log10 Concentration −6.0 Molar
  Percent Growth: 75%
ACHN; Log10 Concentration −7.0 Molar
  Percent Growth: 92%
ACHN; Log10 Concentration −8.0 Molar
  Percent Growth: 99%
HS 578T
  TGI: 2.75E−5 Molar
HS 578T; Homo sapiens, Hs-578T
  GI50: 46.8 µM
HS 578T; Homo sapiens, Hs-578T, read-out: LC50
  CC50: > 100 µM
HS 578T; Homo sapiens, Hs-578T, read-out: Log10 GI50 (converted)
  GI50: 4.68 µM
HOP-92; HOP-92
  TGI: 2.39E−5 Molar
HOP-92; HOP-92, Log10 Concentration −4.0 Molar
  Percent Growth: −60%
HOP-92; HOP-92, Log10 Concentration −5.0 Molar
  Percent Growth: 34%
HOP-92; HOP-92, Log10 Concentration −6.0 Molar
  Percent Growth: 88%
HOP-92; HOP-92, Log10 Concentration −7.0 Molar
  Percent Growth: 81%
HOP-92; HOP-92, Log10 Concentration −8.0 Molar
  Percent Growth: 97%
HOP-92; Homo sapiens, HOP-92
  GI50: 5.17 µM
HOP-92; Homo sapiens, HOP-92, read-out: LC50
  CC50: 77.6 µM
HOP-92; Homo sapiens, HOP-92, read-out: Log10 GI50 (converted)
  GI50: 5.13 µM
HT29; HT20
  TGI: 2.01E−6 Molar
HT29; HT20, Log10 Concentration −4.0 (Molar)
  Percent Growth: −66%
HT29; HT20, Log10 Concentration −5.0 (Molar)
  Percent Growth: 29%
HT29; HT20, Log10 Concentration −6.0 (Molar)
  Percent Growth: 68%
HT29; HT20, Log10 Concentration −7.0 (Molar)
  Percent Growth: 79%
HT29; HT20, Log10 Concentration −8.0 (Molar)
  Percent Growth: 103%
HT29; Homo sapiens
  GI50: 1.83 µM
HT29; Homo sapiens, HT-29, read-out: Log10 GI50 (converted)
  GI50: 1.82 µM
HT29; Homo sapiens, read-out: LC50
  CC50: 67.6 µM
MDA-MB-231/ATCC; Homo sapiens, MDA-MB-231
  GI50: 11 µM
MDA-MB-231/ATCC; Homo sapiens, MDA-MB-231, read-out: LC50
  CC50: > 100 µM
MDA-MB-231/ATCC; Homo sapiens, MDA-MB-231, read-out: Log10 GI50 (converted)
  GI50: 11 µM
MDA-MB-231/ATCC; MDA-MB-231/ATCC
  TGI: 4.23E−5 Molar
MDA-MB-231/ATCC; MDA-MB-231/ATCC, Log10 Concentration −4.0 Molar
  Percent Growth: −32%
MDA-MB-231/ATCC; MDA-MB-231/ATCC, Log10 Concentration −5.0 Molar
  Percent Growth: 53%
MDA-MB-231/ATCC; MDA-MB-231/ATCC, Log10 Concentration −6.0 Molar
  Percent Growth: 109%
MDA-MB-231/ATCC; MDA-MB-231/ATCC, Log10 Concentration −7.0 Molar
  Percent Growth: 120%
MDA-MB-231/ATCC; MDA-MB-231/ATCC, Log10 Concentration −8.0 Molar
  Percent Growth: 105%
H322 cells
  IC50: 31.6 µM
SK-OV-3; Homo sapiens, SK-OV-3
  GI50: 1.82 µM
SK-OV-3; Homo sapiens, SK-OV-3, read-out: LC50
  CC50: > 100 µM
SK-OV-3; Homo sapiens, SK-OV-3, read-out: Log10 GI50 (converted)
  GI50: 1.82 µM
SK-OV-3; SK-OV-3
  TGI: 2.96E−5 Molar
SK-OV-3; SK-OV-3, Log10 Concentration −4.0 Molar
  Percent Growth: −16%
SK-OV-3; SK-OV-3, Log10 Concentration −5.0 Molar
  Percent Growth: 16%
SK-OV-3; SK-OV-3, Log10 Concentration −6.0 Molar
  Percent Growth: 52%
SK-OV-3; SK-OV-3, Log10 Concentration −7.0 Molar
  Percent Growth: 85%
SK-OV-3; SK-OV-3, Log10 Concentration −8.0 Molar
  Percent Growth: 96%
EKVX
  TGI: 6.47E−5 Molar
EKVX; Homo sapiens
  GI50: 24 µM
EKVX; Homo sapiens, read-out: LC50
  CC50: > 100 µM
EKVX; [1]
  GI50: 24 µM
EKVX; Log10 Concentration −4.0 Molar
  Percent Growth: −22%
EKVX; Log10 Concentration −5.0 Molar
  Percent Growth: 94%
EKVX; Log10 Concentration −6.0 Molar
  Percent Growth: 107%
EKVX; Log10 Concentration −7.0 Molar
  Percent Growth: 105%
EKVX; Log10 Concentration −8.0 Molar
  Percent Growth: 103%
